{"source": "patent US20170298406A1", "about": "“SALT OF PHENYLGLYCINE METHYL ESTER” (DSM Sinochem Pharmaceuticals Netherlands B.V., priority 2014, published 2017)", "assay": "Solubility of (PGMH)2SO4 in water as a function of temperature (HPLC of filtered supernatant)", "format": "physicochemical", "details": "filtrate by HPLC", "text": "In the preparation of (PGMH)2SO4 as described in Example 2 separation of the organic phase at pH=4.2 is done while (PGMH)2SO4 is supersaturated. At some point in time, crystallization may start before the organic layer is separated from the aqueous phase. In order to design a process that will avoid crystallization of (PGMH)2SO4 in the presence of organic solvent, and controlled crystallization after separation of the organic phase, solubility of (PGMH)2SO4 as a function of temperature was investigated. The hemi sulfuric acid salt of D-phenylglycine methyl ester (1 g), obtained as described in Example 2 was mixed with water (2 g) at 20° C. and the solid material dissolved. Additional hemi sulfuric acid salt of D-phenylglycine methyl ester (1 g) was added and the mixture was agitated at 20° C. for 25 minutes. Not all solid was dissolved. An aliquot of approximately 0.5 mL of supernatant was filtered, and in the filtrate the concentration of hemi sulfuric acid salt of D-phenylglycine methyl ester was determined by HPLC. The rest of the mixture was stirred at 3° C. Water (2 mL) was added to allow mixing. […] An aliquot of approximately 0.5 mL of supernatant was filtered and in the filtrate the concentration of hemi sulfuric acid salt of D-phenylglycine methyl ester was determined by HPLC.", "note": "Structures can show the parent of a compound that is named as a salt."}
{"smiles": "COC(=O)[C@H](N)c1ccccc1", "note": "[hemi sulfuric acid salt of D-phenylglycine methyl ester]", "values": [{"measurement": "Solubility in water: hemi sulfuric acid salt of D-phenylglycine methyl ester (g)/kg of solution", "setting": "T 3 °C, agitated 30 minutes", "result": "268 g/kg of solution"}, {"measurement": "Solubility in water: hemi sulfuric acid salt of D-phenylglycine methyl ester (g)/kg of solution", "setting": "T 20 °C, agitated 25 minutes", "result": "478 g/kg of solution"}]}
